Read-outs that look alike come from different tables or passages of the source.
How the values were obtained:
[1] = reported, source not given; cited from earlier work
[2] = Endocrinology 63, 464 (1958); cited from earlier work
[3] = target: human estrogen receptor α (ERα) (Homo sapiens, UniProt P03372); details: cited from earlier work
Rat prost. ER = test: Estrogen receptor binding study, competition with 3H-estradiol, rat prostate cytosol
hERβ [4] = type: binding, human; details: for ERβ/ ER: quotient of RBA to hERβ and hER
Rat uterus ER = test: Estrogen receptor binding study, competition with 3H-estradiol, rat uterus cytosol; details: 3H-estradiol as ligand, estradiol = 100
hERβ [5] = details: cited from earlier work
[6] = enantio form; J. Med. Chem. 10, 199-204 1967; cited from earlier work

Sequence of human estrogen receptor α (ERα) (P03372 whole entry): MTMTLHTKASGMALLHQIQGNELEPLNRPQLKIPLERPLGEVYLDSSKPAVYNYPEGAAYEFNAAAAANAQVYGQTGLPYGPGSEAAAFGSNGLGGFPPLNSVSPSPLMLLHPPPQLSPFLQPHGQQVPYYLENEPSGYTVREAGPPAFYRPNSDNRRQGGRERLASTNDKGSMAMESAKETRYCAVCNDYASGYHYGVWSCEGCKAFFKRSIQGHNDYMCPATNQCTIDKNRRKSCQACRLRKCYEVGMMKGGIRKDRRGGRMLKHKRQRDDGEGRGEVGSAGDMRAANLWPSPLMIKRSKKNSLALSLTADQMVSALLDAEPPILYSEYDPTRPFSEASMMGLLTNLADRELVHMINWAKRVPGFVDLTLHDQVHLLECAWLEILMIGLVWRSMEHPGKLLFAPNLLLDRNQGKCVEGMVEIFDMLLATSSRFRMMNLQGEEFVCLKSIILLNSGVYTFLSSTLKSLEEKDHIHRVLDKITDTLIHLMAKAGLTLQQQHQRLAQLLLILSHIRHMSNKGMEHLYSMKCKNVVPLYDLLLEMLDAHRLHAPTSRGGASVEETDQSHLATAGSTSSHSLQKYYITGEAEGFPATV

C[C@@]12CC[C@H]3c4ccc(O)cc4CC[C@H]3[C@H]1CC[C@H]2O (single isomer, unassigned) [ent-8α-estradiol]
antilipemic activity [1]: antilipemic activity in the case of no feminization

CC[C@@]12CC[C@@H]3[C@H](CCC4=CC(=O)CC[C@H]43)[C@H]1CC[C@]2(O)C#CCl (single isomer, unassigned) [ent-17α-chloroethinyl-17β-hydroxy-18a-homo-estr-4-en-3-one]
Clauberg Test [2]: ineffective

C[C@]12CC[C@H]3[C@@H](CC=C4C[C@@H](O)CC[C@@]43C)[C@@H]1CC[C@@H]2O [5-Andro-stene-diol, 5-Androstenediol]
hER RBA* [3]: 6 | Rat prost. ER(RBA) (Rat prost. ER; 3H-estradiol as ligand, prostate cytosol, estradiol = 100): 5 | prost. ER/uterus ER (Rat prost. ER; ratio of binding to prostate and uterus receptor): 50 | ERβ/ ER (hERβ [4]): 3 | Rat uterus ER(RBA) (Rat uterus ER): 0.1 | hERβ RBA* (hERβ [5]): 17

C[C@]12CC[C@@H]3c4ccc(O)cc4CC[C@H]3[C@@H]1C[C@@H](O)C2=O [16α-hydroxyestrone]
RBA value on the rat prostate estrogen receptor compared with the RBA value on the rat uterus estrogen receptor (Rat prost. ER; some studies): five times better | binding to the human estrogen receptor β (ERβ) compared with the human estrogen receptor α (ERα) (hERβ [4]; some studies): three times better

C#C[C@@]1(O)CC[C@@H]2[C@H]3CCc4cc(O)ccc4[C@@H]3CC[C@]21C [17α-Ethinylestradiol]
estrogeneity, relative to estrone [6]: less than 5%

C[C@]12CC[C@@H]3c4ccc(O)cc4CC[C@H]3[C@@H]1C[C@@H](O)[C@@H]2O [Estriol]
ERβ/ ER (hERβ [4]): 1.5 | hERβ RBA* (hERβ [5]; relative binding affinity, estradiol = 100): 21

O=c1c(-c2ccc(O)cc2)coc2cc(O)cc(O)c12 [Geni-steine, Genisteine]
ERβ/ ER (hERβ [4]): 7

From patent publication EP1169336B1, “ENT-STEROIDS AS SELECTIVELY ACTIVE ESTROGENS” (Schering Aktiengesellschaft, priority 1999, dated 2000)
